One series relates to bacterial CoA Ligases. Conditions: literature range; cited from earlier work.
A further series deals with Benzoate-CL. The following applies: cited from earlier work.
Another series concerns Phenylacetate-CL. Conditions: cited from earlier work.
A further series deals with T1, TycA (Brevibacillus parabrevis, UniProt P09095).
T1 construct: this wild-type tycA cDNA encoding the A-, T-, and E-domains was subcloned into a pSU18 vector; made in house; host or cells: Escherichia coli BL21(DE3)
T1 sequence (P09095 with tags, fused parts or gaps): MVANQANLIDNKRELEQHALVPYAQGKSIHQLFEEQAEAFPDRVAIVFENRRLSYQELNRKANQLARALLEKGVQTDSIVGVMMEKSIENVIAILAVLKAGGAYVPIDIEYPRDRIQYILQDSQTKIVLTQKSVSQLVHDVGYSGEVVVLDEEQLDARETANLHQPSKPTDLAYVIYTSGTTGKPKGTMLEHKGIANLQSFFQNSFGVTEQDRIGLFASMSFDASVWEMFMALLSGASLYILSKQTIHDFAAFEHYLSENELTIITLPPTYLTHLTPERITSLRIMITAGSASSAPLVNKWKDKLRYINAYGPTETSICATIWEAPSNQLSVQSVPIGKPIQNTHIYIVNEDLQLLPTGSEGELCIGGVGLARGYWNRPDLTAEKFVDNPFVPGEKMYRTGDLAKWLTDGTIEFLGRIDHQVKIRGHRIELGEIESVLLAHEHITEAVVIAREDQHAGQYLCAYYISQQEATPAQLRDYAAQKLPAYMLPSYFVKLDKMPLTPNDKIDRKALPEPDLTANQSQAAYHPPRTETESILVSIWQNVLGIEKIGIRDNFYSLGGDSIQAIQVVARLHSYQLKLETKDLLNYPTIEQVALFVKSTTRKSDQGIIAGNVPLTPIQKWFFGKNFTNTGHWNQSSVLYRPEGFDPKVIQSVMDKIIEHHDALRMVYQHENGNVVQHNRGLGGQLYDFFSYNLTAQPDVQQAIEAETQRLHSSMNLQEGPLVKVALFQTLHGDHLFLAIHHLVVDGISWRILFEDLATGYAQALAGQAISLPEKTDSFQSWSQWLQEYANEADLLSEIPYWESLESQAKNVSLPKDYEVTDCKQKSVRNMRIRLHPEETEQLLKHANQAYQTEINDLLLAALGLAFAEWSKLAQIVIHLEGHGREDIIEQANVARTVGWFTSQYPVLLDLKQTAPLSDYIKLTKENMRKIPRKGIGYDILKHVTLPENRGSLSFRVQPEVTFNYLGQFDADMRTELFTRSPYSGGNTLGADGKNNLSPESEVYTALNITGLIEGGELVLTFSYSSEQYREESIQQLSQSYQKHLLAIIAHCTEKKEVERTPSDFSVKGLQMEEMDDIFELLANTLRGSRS
In words: CoA ligase reaction kinetics, TycA. Format: biochemical, Brevibacillus brevis. As for the experimental part: Under steady-state conditions, (S)-α-phenylalanine, (R)-β-phenylalanine, and (2R,3S)-phenylisoserine at 5, 10, 20, 40, 80, 160, 250, 500, 1000 and 2000 μM were separately incubated with TycA or TycA-S563A (20 μg) for 30 min. At the end of each reaction, and prior to mass spectrometry analysis, acetyl CoA (1 μM) was added as the internal standard to each sample to correct for variations of the analyte. The products of the enzyme-catalyzed reaction were quantified by a liquid chromatography multiple reaction monitoring (LC-ESI-MRM) mass spectrometry technique (Anderson & Hunter, Mol. Cell. Proteomics 5: 573-588 (2006)) on the Quattro-Premier Electro-Spray Mass Spectrometer coupled with Acquity® UPLC system fitted with a C18 Ascentis Express column (2.5×50 mm, 2.7 μm) at 30° C. An aliquot (5 μL) of each sample was loaded onto the column and the analytes were eluted with a solvent gradient of acetonitrile (Solvent A) in 0.05% triethylamine in distilled water (Solvent B). Elution was held at 2.5% Solvent A for 3.17 min, increased to 100% Solvent A over 5 sec with a 2-min hold, and then returned to 2.5% Solvent A over 5 sec with a 50-sec hold. The flow rate employed was 0.4 mL/min. The effluent from the chromatography column was directed to the mass spectrometer where the first quadrupole mass analyzer (in negative ion mode) was set to select for the molecular ion of a biosynthesized acyl CoA product. The selected ion was then directed to a collision gas chamber where the collision energy was optimized to maximize the abundance of a single signature fragment ion (m/z 408, characteristic of acyl CoA thioesters) resolved in the second quadrupole mass analyzer by the MRM method. The peak area under the curve of fragment ion m/z 408 for each biosynthetic phenylpropionyl CoA thioester was converted to concentration by comparing the peak area of the same ion produced by authentic CoA (at 0.05, 0.1, 0.2, 0.4, 0.8, 1.6, 3.2, 6.4, 12.5, 25, 50, 100 μM) using linear regression analysis.
The KM values of TycA and TycA-S563A for CoA were assessed by incubating each enzyme separately with (S)-α-phenylalanine (1 mM), MgCl2 (3 mM), ATP (1 mM), and CoA at 0.05, 0.1, 0.2, 0.4, 0.8, 1.6, 3.2, 6.4, 12.8 and 25.6 mM at 31° C. for 20 min. At the end of each reaction and prior to mass spectrometry analysis, acetyl CoA (1 μM) was added as the internal standard to each sample to correct for variations of the analyte. The products of the enzyme-catalyzed reaction were quantified by LC-ESI-MRM, and the monitored fragment ion (m/z 408) derived from the CoA moiety of the thioester analytes in the effluent was quantified identically to the procedure described earlier herein.

A further series has as its system 4-Chlorobenzoate-CL. The following applies: cited from earlier work.
Another series has as its target Propionyl-CL (Salmonella typhimurium, UniProt P55912). The following applies: cited from earlier work.
The subject of series [1] is mutation of phenylacetate CoA Ligase. The following applies: mutated enzyme; reaction to make β-Phenylpropanyl CoA; reduced from low mM; cited from earlier work.
A further series concerns Cinnamate-CL. Conditions: cited from earlier work.
The subject of series [2] is CC(C)(COP(=O)(O)OP(=O)(O)OC[C@H]1O[C@@H](n2cnc3c(N)ncnc32)[C@H](O)[C@@H]1OP(=O)(O)O)[C@@H](O)C(=O)NCCC(=O)NCCS. In words: purified protein, by the assay type. The following applies: other: TycA-S563A, CoA 1 mM, ATP 1 mM, MgCl2 3 mM, 31° C., CoA with (S)-α-Phe as cosubstrate, pH 8.0.
For series [3], the system named is C[C@@](N)(C(=O)O)c1ccccc1. Kind of series: purified protein, by the assay type.
The subject of another series is N[C@H](CC(=O)O)c1ccccc1. Kind of series: purified protein, by the assay type.
Substrate in series [4]: CC(=O)NCCS
Kind of series: N-acetylcysteamine ligase reaction kinetics, TycA. The following applies: other: TycA with NAC; NAC with (S)-α-Phe as cosubstrate. The class given is biochemical, Brevibacillus brevis.

[5] abbreviates: other: TycA-S563A with NAC, NAC with (S)-α-Phe as cosubstrate.
[6] abbreviates: other: TycA-S563A, CoA 1 mM, ATP 1 mM, MgCl2 3 mM, 31° C., CoA with (S)-α-Phe as cosubstrate, pH 8.0.

Propionyl-CL, sequence (P55912 whole entry): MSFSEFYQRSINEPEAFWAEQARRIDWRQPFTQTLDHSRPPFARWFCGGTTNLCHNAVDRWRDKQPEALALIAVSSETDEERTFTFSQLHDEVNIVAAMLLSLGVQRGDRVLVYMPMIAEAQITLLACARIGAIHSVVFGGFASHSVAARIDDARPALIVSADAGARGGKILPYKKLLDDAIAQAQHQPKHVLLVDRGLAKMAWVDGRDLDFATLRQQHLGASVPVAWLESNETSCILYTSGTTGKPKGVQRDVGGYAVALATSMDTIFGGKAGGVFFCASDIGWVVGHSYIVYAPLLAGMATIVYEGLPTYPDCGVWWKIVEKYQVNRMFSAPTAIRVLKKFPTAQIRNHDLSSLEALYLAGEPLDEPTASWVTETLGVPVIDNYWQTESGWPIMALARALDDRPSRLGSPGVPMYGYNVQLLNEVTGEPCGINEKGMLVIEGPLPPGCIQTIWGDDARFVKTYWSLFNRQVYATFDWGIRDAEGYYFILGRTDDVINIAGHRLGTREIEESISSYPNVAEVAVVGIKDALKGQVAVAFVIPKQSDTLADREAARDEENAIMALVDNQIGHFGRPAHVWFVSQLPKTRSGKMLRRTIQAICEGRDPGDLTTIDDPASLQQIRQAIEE

Regarding `CC(C)(COP(=O)(O)OP(=O)(O)OC[C@H]1O[C@@H](n2cnc3c(N)ncnc32)[C@H](O)[C@@H]1OP(=O)(O)O)[C@@H](O)C(=O)NCCC(=O)NCCS` [CoA], the Km with bacterial CoA Ligases is 100 to 940 µM; with Benzoate-CL, 100 µM; in the series on Phenylacetate-CL it was 940 µM; at TycA (TycA, CoA 1 mM, ATP 1 mM, MgCl2 3 mM, 31° C., CoA with (S)-α-Phe as cosubstrate), 1980 ± 175 µM; in the series with 4-Chlorobenzoate-CL, 310 µM; at Propionyl-CL, 215 µM. Also, the “kcat^CoA” value on TycA (TycA, turnover with CoA at apparent saturation, CoA with (S)-α-Phe as cosubstrate) came to 0.0125 ± 0.00083 s⁻¹. Besides, the “higher KM of TycA compared to that of TycA-S563A” value on TycA (dilution series of CoA with 1 mM (S)-α-Phe) was ~2.5 fold. Besides, the kcat is 9.3 s⁻¹ in the series on 4-Chlorobenzoate-CL and 42 s⁻¹ on Propionyl-CL.
Regarding `NC(CC(=O)O)c1ccccc1` (stereo not drawn) [β-Phe], the Km in series [1] was 0.068 mM.
Take `CCC(=O)O` [propionate]: at Propionyl-CL, the Km is 20 µM and the kcat was 33 s⁻¹.
As for `O=C(O)c1ccccc1` [benzoate], in the series on Benzoate-CL, the Km is 11 µM and the kcat is 26,000 min^−1.
As to `O=C(O)/C=C/c1ccccc1` [Cinnamate], in the series with Cinnamate-CL, the Km is 190 µM and the kcat is 0.475 s⁻¹.
“TycA-S563A (Brevibacillus parabrevis; S563A)”: the Km in [2] came to 804 ± 26 µM; in series [3] (setting [5]) it was 37.8 ± 1.6 µM; in series [3] (setting [6]), 33.9 ± 4.0 µM; with N[C@H](CC(=O)O)c1ccccc1 (setting [5]), 58.9 ± 6.4 µM; in the series on N[C@H](CC(=O)O)c1ccccc1 (setting [6]), 62.3 ± 1.0 µM. The figures for the kcat (in [2]; in series [3] (setting [5]); in the series on N[C@H](CC(=O)O)c1ccccc1 (setting [5])) were 0.015 ± 0.0013 s⁻¹, 0.003333 ± 3.33e-05 s⁻¹ and 0.0004 ± 1.67e-05 s⁻¹, respectively.

B1: TycA (Brevibacillus parabrevis) (protein)
chain: MVANQANLIDNKRELEQHALVPYAQGKSIHQLFEEQAEAFPDRVAIVFENRRLSYQELNRKANQLARALLEKGVQTDSIVGVMMEKSIENVIAILAVLKAGGAYVPIDIEYPRDRIQYILQDSQTKIVLTQKSVSQLVHDVGYSGEVVVLDEEQLDARETANLHQPSKPTDLAYVIYTSGTTGKPKGTMLEHKGIANLQSFFQNSFGVTEQDRIGLFASMSFDASVWEMFMALLSGASLYILSKQTIHDFAAFEHYLSENELTIITLPPTYLTHLTPERITSLRIMITAGSASSAPLVNKWKDKLRYINAYGPTETSICATIWEAPSNQLSVQSVPIGKPIQNTHIYIVNEDLQLLPTGSEGELCIGGVGLARGYWNRPDLTAEKFVDNPFVPGEKMYRTGDLAKWLTDGTIEFLGRIDHQVKIRGHRIELGEIESVLLAHEHITEAVVIAREDQHAGQYLCAYYISQQEATPAQLRDYAAQKLPAYMLPSYFVKLDKMPLTPNDKIDRKALPEPDLTANQSQAAYHPPRTETESILVSIWQNVLGIEKIGIRDNFYSLGGDSIQAIQVVARLHSYQLKLETKDLLNYPTIEQVALFVKSTTRKSDQGIIAGNVPLTPIQKWFFGKNFTNTGHWNQSSVLYRPEGFDPKVIQSVMDKIIEHHDALRMVYQHENGNVVQHNRGLGGQLYDFFSYNLTAQPDVQQAIEAETQRLHSSMNLQEGPLVKVALFQTLHGDHLFLAIHHLVVDGISWRILFEDLATGYAQALAGQAISLPEKTDSFQSWSQWLQEYANEADLLSEIPYWESLESQAKNVSLPKDYEVTDCKQKSVRNMRIRLHPEETEQLLKHANQAYQTEINDLLLAALGLAFAEWSKLAQIVIHLEGHGREDIIEQANVARTVGWFTSQYPVLLDLKQTAPLSDYIKLTKENMRKIPRKGIGYDILKHVTLPENRGSLSFRVQPEVTFNYLGQFDADMRTELFTRSPYSGGNTLGADGKNNLSPESEVYTALNITGLIEGGELVLTFSYSSEQYREESIQQLSQSYQKHLLAIIAHCTEKKEVERTPSDFSVKGLQMEEMDDIFELLANTLRGSRS
notes: this wild-type tycA cDNA encoding the A-, T-, and E-domains was subcloned into a pSU18 vector; made in house; host or cells: Escherichia coli BL21(DE3)
For the molecule B1, in series [4], the Km turned out to be 153 ± 22 µM and the kcat was 0.0015 ± 0.000167 s⁻¹.

The Km is the substrate concentration at which the rate is half of its maximum. Broadly, the kcat is the maximal rate divided by the concentration of active sites.

The values are drawn from patent publication US20170342451A1, “BIOSYNTHESIS OF PACLITAXEL INTERMEDIATE” (Board of Trustees of Michigan State University, priority 2012, published 2017).
